Test results: PubChem BioAssay (NCI)
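Each compound was tested at five concentrations against cells in 96-well plates for 48 hours. TGI: total growth inhibition.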

Legend:
Test in all cases: NCI-60 cell line screen, 48 h
DU-145 prostate = system: DU-145 prostate
UO-31 renal = system: UO-31 renal
SK-MEL-28 melanoma = system: SK-MEL-28 melanoma
BT-549 breast = system: BT-549 breast
MDA-MB-435 = system: MDA-MB-435
OVCAR-8 ovarian = system: OVCAR-8 ovarian
COLO 205 colon = system: COLO 205 colon
786-0 renal = system: 786-0 renal
SF-539 CNS = system: SF-539 CNS
SF-268 CNS = system: SF-268 CNS
MALME-3M melanoma = system: MALME-3M melanoma
EKVX NSCLC = system: EKVX NSCLC
SW-620 colon = system: SW-620 colon
IGROV1 ovarian = system: IGROV1 ovarian
SNB-19 CNS = system: SNB-19 CNS
RXF 393 renal = system: RXF 393 renal
UACC-62 melanoma = system: UACC-62 melanoma
NCI/ADR-RES ovarian = system: NCI/ADR-RES ovarian
HCT-15 colon = system: HCT-15 colon
CCRF-CEM leukemia = system: CCRF-CEM leukemia
SR leukemia = system: SR leukemia
HOP-62 NSCLC = system: HOP-62 NSCLC
K-562 leukemia = system: K-562 leukemia
MDA-N = system: MDA-N
HS 578T breast = system: HS 578T breast
HOP-92 NSCLC = system: HOP-92 NSCLC
SK-MEL-5 melanoma = system: SK-MEL-5 melanoma
SK-MEL-2 melanoma = system: SK-MEL-2 melanoma
SNB-75 CNS = system: SNB-75 CNS
SN12C renal = system: SN12C renal
LOX IMVI melanoma = system: LOX IMVI melanoma
TK-10 renal = system: TK-10 renal
CAKI-1 renal = system: CAKI-1 renal
ACHN renal = system: ACHN renal
MCF7 breast = system: MCF7 breast
OVCAR-5 ovarian = system: OVCAR-5 ovarian
A549 NSCLC = system: A549 NSCLC
PC-3 prostate = system: PC-3 prostate
UACC-257 melanoma = system: UACC-257 melanoma
MOLT-4 leukemia = system: MOLT-4 leukemia
T-47D breast = system: T-47D breast
MDA-MB-231 breast = system: MDA-MB-231 breast
M14 melanoma = system: M14 melanoma
KM12 colon = system: KM12 colon
A498 renal = system: A498 renal
OVCAR-3 ovarian = system: OVCAR-3 ovarian
HCC-2998 colon = system: HCC-2998 colon
NCI-H23 lung = system: NCI-H23 lung
HCT-116 colon = system: HCT-116 colon
U251 CNS = system: U251 CNS
NCI-H226 lung = system: NCI-H226 lung
SK-OV-3 ovarian = system: SK-OV-3 ovarian
RPMI-8226 leukemia = system: RPMI-8226 leukemia
NCI-H460 lung = system: NCI-H460 lung
OVCAR-4 ovarian = system: OVCAR-4 ovarian
SF-295 CNS = system: SF-295 CNS
HT29 colon = system: HT29 colon
NCI-H522 lung = system: NCI-H522 lung
HL-60(TB) leukemia = system: HL-60(TB) leukemia

CC(C)(C)C(=O)OCC1CCC[N+]2(C)CCCCC12 (stereo unspecified)
TGI (DU-145 prostate): > 100 µM | TGI (UO-31 renal): > 100 µM | TGI (SK-MEL-28 melanoma): > 100 µM | TGI (BT-549 breast): > 100 µM | TGI (MDA-MB-435): > 100 µM | TGI (OVCAR-8 ovarian): > 100 µM | TGI (COLO 205 colon): > 100 µM | TGI (786-0 renal): > 100 µM | TGI (SF-539 CNS): > 100 µM | TGI (SF-268 CNS): > 100 µM | TGI (MALME-3M melanoma): > 100 µM | TGI (EKVX NSCLC): > 100 µM | TGI (SW-620 colon): > 100 µM | TGI (IGROV1 ovarian): > 100 µM | TGI (SNB-19 CNS): > 100 µM | TGI (RXF 393 renal): > 100 µM | TGI (UACC-62 melanoma): > 100 µM | TGI (NCI/ADR-RES ovarian): > 100 µM | TGI (HCT-15 colon): > 100 µM | TGI (CCRF-CEM leukemia): > 100 µM | TGI (SR leukemia): > 100 µM | TGI (HOP-62 NSCLC): > 100 µM | TGI (K-562 leukemia): > 100 µM | TGI (MDA-N): > 100 µM | TGI (HS 578T breast): > 100 µM | TGI (HOP-92 NSCLC): > 100 µM | TGI (SK-MEL-5 melanoma): > 100 µM | TGI (SK-MEL-2 melanoma): > 100 µM | TGI (SNB-75 CNS): > 100 µM | TGI (SN12C renal): > 100 µM | TGI (LOX IMVI melanoma): > 100 µM | TGI (TK-10 renal): > 100 µM | TGI (CAKI-1 renal): > 100 µM | TGI (ACHN renal): > 100 µM | TGI (MCF7 breast): > 100 µM | TGI (OVCAR-5 ovarian): > 100 µM | TGI (A549 NSCLC): > 100 µM | TGI (PC-3 prostate): > 100 µM | TGI (UACC-257 melanoma): > 100 µM | TGI (MOLT-4 leukemia): > 100 µM | TGI (T-47D breast): > 100 µM | TGI (MDA-MB-231 breast): > 100 µM | TGI (M14 melanoma): > 100 µM | TGI (KM12 colon): > 100 µM | TGI (A498 renal): > 100 µM | TGI (OVCAR-3 ovarian): > 100 µM | TGI (HCC-2998 colon): > 100 µM | TGI (NCI-H23 lung): > 100 µM | TGI (HCT-116 colon): > 100 µM | TGI (U251 CNS): > 100 µM | TGI (NCI-H226 lung): > 100 µM | TGI (SK-OV-3 ovarian): > 100 µM | TGI (RPMI-8226 leukemia): > 100 µM | TGI (NCI-H460 lung): > 100 µM | TGI (OVCAR-4 ovarian): > 100 µM | TGI (SF-295 CNS): > 100 µM | TGI (HT29 colon): > 100 µM

CC(=O)Nc1cc(C(=O)Nc2cc(C(=O)N3CC(CCl)c4c3cc(N)c3ccccc43)nn2C)nn1C (stereo unspecified)
TGI (DU-145 prostate): 0.018 µM | TGI (UO-31 renal): 1.35 µM | TGI (SK-MEL-28 melanoma): 0.154 µM | TGI (BT-549 breast): 0.883 µM | TGI (MDA-MB-435): 0.281 µM | TGI (OVCAR-8 ovarian): 0.308 µM | TGI (786-0 renal): 0.332 µM | TGI (SF-539 CNS): 0.0549 µM | TGI (SF-268 CNS): 0.128 µM | TGI (MALME-3M melanoma): 0.267 µM | TGI (EKVX NSCLC): 1.15 µM | TGI (IGROV1 ovarian): 0.851 µM | TGI (SNB-19 CNS): 3.14 µM | TGI (RXF 393 renal): 0.226 µM | TGI (UACC-62 melanoma): 0.0631 µM | TGI (NCI/ADR-RES ovarian): 7.49 µM | TGI (HCT-15 colon): 3.22 µM | TGI (CCRF-CEM leukemia): 0.0491 µM | TGI (HOP-62 NSCLC): > 100 µM | TGI (K-562 leukemia): 0.823 µM | TGI (MDA-N): 0.389 µM | TGI (HS 578T breast): 1.55 µM | TGI (HOP-92 NSCLC): 0.1 µM | TGI (SK-MEL-5 melanoma): 1.23 µM | TGI (SK-MEL-2 melanoma): 0.427 µM | TGI (SNB-75 CNS): 0.0775 µM | TGI (SN12C renal): 0.0102 µM | TGI (LOX IMVI melanoma): 1.07 µM | TGI (TK-10 renal): > 100 µM | TGI (CAKI-1 renal): 0.525 µM | TGI (ACHN renal): 0.0892 µM | TGI (MCF7 breast): > 66.5 µM | TGI (OVCAR-5 ovarian): 17.3 µM | TGI (A549 NSCLC): 2.85 µM | TGI (UACC-257 melanoma): 2.09 µM | TGI (MOLT-4 leukemia): 0.0687 µM | TGI (T-47D breast): 0.0931 µM | TGI (MDA-MB-231 breast): 0.76 µM | TGI (M14 melanoma): 2.07 µM | TGI (KM12 colon): 7.83 µM | TGI (A498 renal): < 0.0197 µM | TGI (OVCAR-3 ovarian): 2.61 µM | TGI (HCC-2998 colon): 0.491 µM | TGI (NCI-H23 lung): 0.0678 µM | TGI (NCI-H522 lung): 0.0181 µM | TGI (HCT-116 colon): 0.412 µM | TGI (U251 CNS): 0.856 µM | TGI (SK-OV-3 ovarian): 5.96 µM | TGI (RPMI-8226 leukemia): 1.41 µM | TGI (NCI-H460 lung): 0.13 µM | TGI (HL-60(TB) leukemia): < 0.0344 µM | TGI (OVCAR-4 ovarian): 0.677 µM | TGI (SF-295 CNS): 4.41 µM | TGI (HT29 colon): 1.21 µM
